# Values quoted from earlier work in CN101129366A, “一种尼莫地平药物组合物及其制备方法” (Beijing Zhonghaikang Medical Technology Development Co Ltd, priority 2007, dated 2008).
# Details: drug substance
compound,measurement,setting,value
COCCOC(=O)C1=C(C)NC(C)=C(C(=O)OC(C)C)C1c1cccc([N+](=O)[O-])c1 (stereo not shown) [尼莫地平],solubility in acetone and chloroform,"acetone, chloroform",易溶
same,solubility in ethanol,ethanol,溶解
same,solubility in diethyl ether,ether,微溶
same,solubility in water,water,不溶
